{
  "source": "paper PMC2009935",
  "about": "“Biological activities of dihydrodiols derived from two polycyclic hydrocarbons in rodent test systems” (British Journal of Cancer, 1979)",
  "key": {"[1]": {"test_system": "mouse skin"}, "[2]": {"test_system": "mouse skin", "assay": "Short-term test on mouse skin: suppression of sebaceous glands"}, "[3]": {"test_system": "Wistar rats", "assay": "Induction of sarcomas after s.c. injection into Wistar rats"}, "[4]": {"test_system": "mouse skin", "details": "total doses 75-150 ug in 3 applications"}, "[5]": {"details": "single dose 25 ug, TPA promotion"}, "[6]": {"details": "female Wistar rats, single s.c. injection 0.9 mg in olive oil, up to 9 months"}},
  "data": [
    {"smiles": "Cc1c2ccccc2cc2c1ccc1ccccc12", "note": "[7-methylbenz[a]anthracene, reference compound]", "values": [
      {"measurement": "tumour-initiating activity on mouse skin (in words)", "setting": "[1]; female CDI mice, single dose 25 ug in acetone on dorsal skin, TPA thrice weekly for 52 weeks", "value": "more active than the related 1,2-, 5,6- and 8,9-dihydrodiols"},
      {"measurement": "skin-tumour incidence plateau, first or only, time after initiation", "setting": "[1]; [5]", "value": "> 40", "unit": "weeks"}
    ]},
    {"smiles": "c1ccc2c(c1)cc1ccc3cccc4ccc2c1c34", "note": "[BP, benzo[a]pyrene, reference compound]", "values": [
      {"measurement": "Sebaceous glands, No. present", "setting": "[2]; total dose 150.0 ug in 3 applications in acetone, 8 days after first treatment, 12 microscopic fields", "value": 0.0},
      {"measurement": "No. with sarcomas", "setting": "[3]; Table III, female Wistar rats, single s.c. injection 0.9 mg in 0.5 ml olive oil, up to 9 months, 30 animals", "value": 24},
      {"measurement": "sarcomas induced in the group of rats", "setting": "[3]; [6]", "value": "24/30"}
    ]},
    {"smiles": "Cc1c2ccccc2cc2c3c(ccc12)C=C[C@@H](O)[C@@H]3O", "note": "(relative stereo) [1,2-dihydrodiol, trans-1,2-Dihydro-1,2-dihydroxy-7-methylbenz[a]anthracene]", "values": [
      {"measurement": "tumour development in the initiated mice (in words)", "setting": "[1]; [5]", "value": "only really increased after the amount of TPA applied had been doubled"}
    ]},
    {"smiles": "O[C@H]1C=Cc2c(cc3ccc4cccc5ccc2c3c45)[C@@H]1O", "note": "(relative stereo) [trans-7,8-Dihydro-7,8-dihydroxy-BP, trans-7,8-Dihydro-7,8-dihydroxybenzo[a]pyrene]", "values": [
      {"measurement": "induction of hyperplasia in mouse skin (in words)", "setting": "[4]", "value": "some activity as a hyperplastic agent"},
      {"measurement": "suppression of sebaceous glands in mouse skin (in words)", "setting": "[2]; total doses 75-150 ug in 3 applications", "value": "some activity"},
      {"measurement": "sarcomas induced in the group of rats", "setting": "[3]; [6]", "value": "one"},
      {"measurement": "activity as s.c. carcinogen in rats (in words)", "setting": "[3]; single s.c. injection 0.9 mg in olive oil", "value": "very much less active than benzo[a]pyrene as an s.c. carcinogen in rats"}
    ]},
    {"smiles": "Cc1c2c(cc3c1ccc1ccccc13)C=C[C@@H](O)[C@@H]2O", "note": "(relative stereo) [8,9-dihydrodiol, trans-8,9-dihydro-8,9-dihydroxy-7-methylbenz[a]anthracene]", "values": [
      {"measurement": "tumour development in the initiated mice (in words)", "setting": "[1]; [5]", "value": "only really increased after the amount of TPA applied had been doubled"}
    ]}
  ]
}
